Columns and labels:
[1] = biological target: T1, human V1a receptor (Homo sapiens, UniProt P37288); assay: Cellular in vitro assay for determining the vasopressin receptor activity (aequorin luminescence); assay type: cell-based; conditions: CHO cell line transfected with the human V1a receptor; agonist [Arg8]-vasopressin; read-out: IC50 hV1a
T1 construct: expressed in transfected cells; host or cells: CHO K1 (constitutively expressing modified aequorin)
Description: (§1) B-1. Cellular In Vitro Assay for Determining the Vasopressin Receptor Activity
(§2) The identification of agonists and antagonists of the V1a and V2 vasopressin receptors from humans and rats and also the quantification of the activity of the substances described here took place using recombinant cell lines. These cells derive originally from a hamster ovary epithelial cell (Chinese Hamster Ovary, CHO K1, ATCC: American Type Culture Collection, Manassas, Va. 20108, USA). The test cell lines constitutively express a modified form of the calcium-sensitive photoprotein aequorin, which, after reconstitution with the cofactor coelenterazine, emits light when there are increases in the free calcium concentration (Rizzuto R., Simpson A. W., Brini M., Pozzan T.; Nature 358 (1992) 325-327). In addition, the cells are stably transfected with the human or rat V1a or V2 receptors. In the case of the Gs-coupling V2 receptors, the cells are stably transfected with a further gene, which codes for the promiscuous Gα16 protein (Amatruda T. T., Steele D. A., Slepak V. Z., Simon M. I., Proc. Nat. Acad. Sci. USA 88 (1991), 5587-5591), either independently or as a fusion gene. The resulting vasopressin receptor test cells react to stimulation of the recombinantly expressed vasopressin receptors by intracellular release of calcium ions, which can be quantified by the resulting aequorin luminescence using a suitable luminometer (Milligan G., Marshall F., Rees S., Trends in Pharmaco. Sci. 17 (1996) 235-237).
(§3) On the day before the assay, the cells are plated out in culture medium (DMEM, 10% FCS, 2 mM glutamine, 10 mM HEPES) in 384-well microtiter plates and kept in a cell incubator (96% humidity, 5% v/v carbon dioxide, 37° C.). On the day of the assay, the culture medium is replaced by a Tyrode solution (140 mM sodium chloride, 5 mM potassium chloride, 1 mM magnesium chloride, 2 mM calcium chloride, 20 mM glucose, 20 mM HEPES), which additionally contains the cofactor coelenterazine (50 μM), and the microtiter plate is then incubated for a further 3-4 hours. The test substances in various concentrations are placed for 10 to 20 minutes in the wells of the microtiter plate before the agonist [Arg8]-vasopressin is added, and the resulting light signal is measured immediately in the luminometer. The IC50 values are calculated using the GraphPad PRISM computer program (Version 3.02).
(§4) The table below lists representative IC50 values for the compounds of the invention on the cell line transfected with the human V1a or V2 receptor: […]

[2] = biological target: T2, human V2 receptor (Homo sapiens, UniProt P30518); assay: as above; assay type: cell-based; conditions: CHO cell line transfected with the human V2 receptor (and Gα16); agonist [Arg8]-vasopressin; read-out: IC50 hV2
T2 construct: expressed in transfected cells; host or cells: CHO K1 (constitutively expressing modified aequorin; co-transfected with promiscuous G-alpha-16)
Description: as §1, §2, §3, §4

T1 sequence (P37288 whole entry): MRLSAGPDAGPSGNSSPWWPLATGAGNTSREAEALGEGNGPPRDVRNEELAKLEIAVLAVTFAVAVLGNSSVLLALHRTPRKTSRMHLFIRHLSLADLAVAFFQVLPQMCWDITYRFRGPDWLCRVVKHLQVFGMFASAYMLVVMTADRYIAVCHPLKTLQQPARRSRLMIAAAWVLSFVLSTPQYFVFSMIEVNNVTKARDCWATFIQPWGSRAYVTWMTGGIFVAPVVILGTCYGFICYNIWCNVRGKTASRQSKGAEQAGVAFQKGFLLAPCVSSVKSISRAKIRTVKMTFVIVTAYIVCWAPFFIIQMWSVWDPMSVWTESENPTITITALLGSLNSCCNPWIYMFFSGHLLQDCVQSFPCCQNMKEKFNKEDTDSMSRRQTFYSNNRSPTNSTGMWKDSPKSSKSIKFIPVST
T2 sequence (P30518 whole entry): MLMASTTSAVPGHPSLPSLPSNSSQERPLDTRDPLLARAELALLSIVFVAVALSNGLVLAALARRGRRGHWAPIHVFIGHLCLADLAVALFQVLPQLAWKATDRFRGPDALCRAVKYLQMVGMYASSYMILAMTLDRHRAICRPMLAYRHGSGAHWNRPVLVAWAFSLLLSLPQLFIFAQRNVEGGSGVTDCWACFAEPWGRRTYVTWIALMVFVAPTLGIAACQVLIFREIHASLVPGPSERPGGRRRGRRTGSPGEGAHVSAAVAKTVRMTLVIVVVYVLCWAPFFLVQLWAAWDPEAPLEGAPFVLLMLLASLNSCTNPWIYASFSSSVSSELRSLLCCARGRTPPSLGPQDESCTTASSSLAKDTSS

| IC50 [1] [nM] | IC50 [2] [nM] | Structure (SMILES) |
| --- | --- | --- |
| 2.3 | 24.8 | NC(=O)OCC(NC(=O)Cn1nc(-c2ccc(Cl)cc2)n(Cc2ccccc2F)c1=O)c1ccccc1C(F)(F)F (single isomer, unassigned) [Example 191, 2-({[3-(4-Chlorophenyl)-4-(2-fluorobenzyl)-5-oxo-4,5-dihydro-1H-1,2,4-triazol-1-yl]acetyl}amino)-2-[2-(trifluoromethyl)phenyl]ethyl carbamate] |
| 2.7 | 4.4 | NC(=O)OCC(NC(=O)Cn1nc(-c2ccc(Cl)cc2)n(C[C@H](O)C(F)(F)F)c1=O)c1cccc(Cl)c1Cl (single isomer, unassigned) [Example 203] |
| 7.6 | 2.6 | O=C(Cn1nc(-c2ccc(Cl)cc2)n(C[C@H](O)C(F)(F)F)c1=O)NC(C[N+](=O)[O-])c1cccc(C(F)(F)F)c1 (single isomer, unassigned; diastereomer i) [Example 2] |
| 1.4 | 7.8 | O=C(Cn1nc(-c2ccc(Cl)cc2)n(C[C@H](O)C(F)(F)F)c1=O)NC(CO)c1ccccc1C(F)(F)F (single isomer, unassigned; diastereomer i) [Example 39] |
| 1 | 8.9 | NCC(NC(=O)Cn1nc(-c2ccc(Cl)cc2)n(C[C@H](O)C(F)(F)F)c1=O)c1ccccc1C(F)(F)F (single isomer, unassigned; diastereomer ii) [Example 14] |
| 4.5 | 1.3 | CS(=O)(=O)NCC(NC(=O)Cn1nc(-c2ccc(Cl)cc2)n(C[C@H](O)C(F)(F)F)c1=O)c1cccc(C(F)(F)F)c1 (single isomer, unassigned; diastereomer ii) [Example 24] |
| 0.9 | 3.2 | CS(=O)(=O)NCC(NC(=O)Cn1nc(-c2ccc(Cl)cc2)n(C[C@H](O)C(F)(F)F)c1=O)c1ccccc1C(F)(F)F (single isomer, unassigned; diastereomer ii) [Example 26] |
| 3 | 1.5 | CCS(=O)(=O)NCC(NC(=O)Cn1nc(-c2ccc(Cl)cc2)n(C[C@H](O)C(F)(F)F)c1=O)c1cccc(Cl)c1Cl (single isomer, unassigned; diastereomer ii) [Example 34] |
| 44 | 1.7 | C[C@@](CO)(NC(=O)Cn1nc(-c2ccc(Cl)cc2)n(C[C@H](O)C(F)(F)F)c1=O)c1cccc(C(F)(F)F)c1 [Example 44, 2-{3-(4-Chlorophenyl)-5-oxo-4-[(2S)-3,3,3-trifluoro-2-hydroxypropyl]-4,5-dihydro-1H-1,2,4-triazol-1-yl}-N-{(2R)-1-hydroxy-2-[3-(trifluoromethyl)phenyl]propan-2-yl}acetamide] |
| 5.5 | 2.5 | C[C@@](COC(N)=O)(NC(=O)Cn1nc(-c2ccc(Cl)cc2)n(C[C@H](O)C(F)(F)F)c1=O)c1cccc(C(F)(F)F)c1 [Example 45, (2R)-2-[({3-(4-Chlorophenyl)-5-oxo-4-[(2S)-3,3,3-trifluoro-2-hydroxypropyl]-4,5-dihydro-1H-1,2,4-triazol-1-yl}acetyl)amino]-2-[3-(trifluoromethyl)phenyl]propyl carbamate] |
| 1.5 | 4.9 | NC(=O)OCC(NC(=O)Cn1nc(-c2ccc(Cl)cc2)n(C[C@H](O)C(F)(F)F)c1=O)c1ccccc1Cl (stereo partly drawn) [Example 53, 2-(2-Chlorophenyl)-2-[({3-(4-chlorophenyl)-5-oxo-4-[(2S)-3,3,3-trifluoro-2-hydroxypropyl]-4,5-dihydro-1H-1,2,4-triazol-1-yl}acetyl)amino]ethyl carbamate] |
| 1.6 | 9.7 | O=C(Cn1nc(-c2ccc(Cl)cc2)n(C[C@H](O)C(F)(F)F)c1=O)N[C@@H](CCO)c1ccccc1C(F)(F)F [Example 69, 2-{3-(4-Chlorophenyl)-5-oxo-4-[(2S)-3,3,3-trifluoro-2-hydroxypropyl]-4,5-dihydro-1H-1,2,4-triazol-1-yl}-N-{(1S)-3-hydroxy-1-[2-(trifluoromethyl)phenyl]propyl}acetamide] |
| 1.6 | 9.9 | NC(=O)OCC[C@H](NC(=O)Cn1nc(-c2ccc(Cl)cc2)n(C[C@H](O)C(F)(F)F)c1=O)c1ccccc1C(F)(F)F [Example 70, (3S)-3-[({3-(4-Chlorophenyl)-5-oxo-4-[(2S)-3,3,3-trifluoro-2-hydroxypropyl]-4,5-dihydro-1H-1,2,4-triazol-1-yl}acetyl)amino]-3-[2-(trifluoromethyl)phenyl]propyl carbamate] |
| 21.6 | 2.4 | Cc1cccc([C@H](CO)NC(=O)Cn2nc(-c3ccc(Cl)cc3)n(C[C@H](O)C(F)(F)F)c2=O)c1C [Example 74, 2-{3-(4-Chlorophenyl)-5-oxo-4-[(2S)-3,3,3-trifluoro-2-hydroxypropyl]-4,5-dihydro-1H-1,2,4-triazol-1-yl}-N-[(1R)-1-(2,3-dimethylphenyl)-2-hydroxyethyl]acetamide] |
| 513 | 59.2 | N#Cc1cccc([C@H](CO)NC(=O)Cn2nc(-c3ccc(Cl)cc3)n(C[C@H](O)C(F)(F)F)c2=O)c1 [Example 75, 2-{3-(4-Chlorophenyl)-5-oxo-4-[(2S)-3,3,3-trifluoro-2-hydroxypropyl]-4,5-dihydro-1H-1,2,4-triazol-1-yl}-N-[(1R)-1-(3-cyanophenyl)-2-hydroxyethyl]acetamide] |
| 88.6 | 231 | O=C(Cn1nc(-c2ccc(Cl)cc2)n(C[C@H](O)C(F)(F)F)c1=O)NC(CC(F)(F)F)c1ccccc1 (stereo partly drawn) [Example 90, 2-{3-(4-Chlorophenyl)-5-oxo-4-[(2S)-3,3,3-trifluoro-2-hydroxypropyl]-4,5-dihydro-1H-1,2,4-triazol-1-yl}-N-(3,3,3-trifluoro-1-phenylpropyl)acetamide] |
| 251 | 72.3 | O=C(Cn1nc(-c2ccc(Cl)cc2)n(C[C@H](O)C(F)(F)F)c1=O)NC(c1ccccc1)C(O)C(F)(F)F (stereo partly drawn) [Example 94, 2-{3-(4-Chlorophenyl)-5-oxo-4-[(2S)-3,3,3-trifluoro-2-hydroxypropyl]-4,5-dihydro-1H-1,2,4-triazol-1-yl}-N-(3,3,3-trifluoro-2-hydroxy-1-phenylpropyl)acetamide] |
| 57.3 | 19.2 | O=C(Cn1nc(-c2ccc(Cl)cc2)n(C[C@H](O)C(F)(F)F)c1=O)NC(CO)c1cccc(F)c1F (stereo partly drawn) [Example 95, 2-{3-(4-Chlorophenyl)-5-oxo-4-[(2S)-3,3,3-trifluoro-2-hydroxypropyl]-4,5-dihydro-1H-1,2,4-triazol-1-yl}-N-[1-(2,3-difluorophenyl)-2-hydroxyethyl]acetamide] |
| 12.4 | 5.1 | O=C(Cn1nc(-c2ccc(Cl)cc2)n(C[C@H](O)C(F)(F)F)c1=O)NC(CO)c1cccc(C(F)F)c1 (stereo partly drawn) [Example 157, 2-{3-(4-Chlorophenyl)-5-oxo-4-[(2S)-3,3,3-trifluoro-2-hydroxypropyl]-4,5-dihydro-1H-1,2,4-triazol-1-yl}-N-{1-[3-(difluoromethyl)phenyl]-2-hydroxyethyl}acetamide] |
| 4.3 | 1.8 | NS(=O)(=O)OCC(NC(=O)Cn1nc(-c2ccc(Cl)cc2)n(C[C@H](O)C(F)(F)F)c1=O)c1cccc(C(F)(F)F)c1 (stereo partly drawn) [Example 159, 2-[({3-(4-Chlorophenyl)-5-oxo-4-[(2S)-3,3,3-trifluoro-2-hydroxypropyl]-4,5-dihydro-1H-1,2,4-triazol-1-yl}acetyl)amino]-2-[3-(trifluoromethyl)phenyl]ethyl sulphamate] |
| 594 | 7.7 | CN(C(=O)Cn1nc(-c2ccc(Cl)cc2)n(C[C@H](O)C(F)(F)F)c1=O)C(CO)c1cccc(C(F)(F)F)c1 (stereo partly drawn) [Example 163, 2-{3-(4-Chlorophenyl)-5-oxo-4-[(2S)-3,3,3-trifluoro-2-hydroxypropyl]-4,5-dihydro-1H-1,2,4-triazol-1-yl}-N-{2-hydroxy-1-[3-(trifluoromethyl)phenyl]ethyl}-N-methylacetamide] |
| 87 | 76 | C=CCn1c(-c2ccc(Cl)cc2)nn(CC(=O)NC(CO)c2cccc(Cl)c2F)c1=O (stereo not drawn) [Example 168] |
| 91 | 136 | Cc1csc(-c2nn(CC(=O)NC(CO)c3cccc(Cl)c3F)c(=O)n2CC(C)C)c1Cl (stereo not drawn) [Example 172] |
| 304 | 28 | O=C(Cn1nc(-c2ccc(Cl)cc2)n(CC2CCCCC2)c1=O)NC(CO)c1cccc(Cl)c1F (stereo not drawn) [Example 182] |

Reference: patent publication US8796324B2, “Substituted 2-acetamido-5-aryl-1,2,4-triazolones and use thereof” (Bayer Intellectual Property GmbH, priority 2009, dated 2014)
